Here are results for 25 compounds from patent US20200291018A1, “TAM KINASE INHIBITORS” (SYROS PHARMACEUTICALS, INC., priority 2017, published 2020).

For assay [1], the target named is T1, MERTK (Homo sapiens, UniProt Q12866).
T1 sequence (Q12866 21-999): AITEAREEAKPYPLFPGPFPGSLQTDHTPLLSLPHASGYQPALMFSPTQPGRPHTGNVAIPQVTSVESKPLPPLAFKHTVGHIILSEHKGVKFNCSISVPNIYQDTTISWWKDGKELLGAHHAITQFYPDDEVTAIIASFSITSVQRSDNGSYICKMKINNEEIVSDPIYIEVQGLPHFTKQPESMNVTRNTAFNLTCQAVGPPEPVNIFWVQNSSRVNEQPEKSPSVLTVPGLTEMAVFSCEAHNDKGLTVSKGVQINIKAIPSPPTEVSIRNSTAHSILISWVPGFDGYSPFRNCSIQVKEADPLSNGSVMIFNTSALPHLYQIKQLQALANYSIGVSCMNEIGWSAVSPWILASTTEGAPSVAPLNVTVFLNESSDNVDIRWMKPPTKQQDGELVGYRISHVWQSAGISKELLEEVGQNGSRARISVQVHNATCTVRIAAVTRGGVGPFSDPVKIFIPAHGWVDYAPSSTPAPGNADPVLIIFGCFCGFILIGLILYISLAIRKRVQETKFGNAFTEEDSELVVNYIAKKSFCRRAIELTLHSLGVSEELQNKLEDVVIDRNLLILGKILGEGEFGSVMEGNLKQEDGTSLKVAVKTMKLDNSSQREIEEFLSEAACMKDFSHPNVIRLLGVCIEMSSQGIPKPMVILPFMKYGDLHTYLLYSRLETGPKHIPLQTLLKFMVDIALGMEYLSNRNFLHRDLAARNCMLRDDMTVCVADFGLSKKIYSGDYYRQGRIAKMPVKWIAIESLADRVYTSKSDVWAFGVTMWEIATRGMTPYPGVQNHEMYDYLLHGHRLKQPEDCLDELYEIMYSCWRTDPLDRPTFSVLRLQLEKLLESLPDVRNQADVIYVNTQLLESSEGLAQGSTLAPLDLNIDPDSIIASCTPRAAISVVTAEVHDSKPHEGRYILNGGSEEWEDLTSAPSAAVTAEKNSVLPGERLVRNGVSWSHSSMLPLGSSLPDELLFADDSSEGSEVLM
Briefly: TR-FRET kinase activity assay, MERTK. Particulars: for IC50: TR-FRET activity assay, ATP at Km, 60 minutes, read-out: Mer IC50; for Mer/Flt3 ratio (FLT3 IC50/Mer IC50): ratio calculated as FLT3 IC50/Mer IC50. Format: biochemical. Summed up:
(§1)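 Buffer 50 mM HEPES pH 7.5/10 mM MgCl2/1 mM EGTA/0.01% Brij 35/1 mM DTT, RT. Km ATP per kinase, labeled peptide, 60 min; 12.5 mM EDTA stop; Eu-Ab 30 min dark; TR-FRET → IC50.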

Assay [2] concerns the target T2, FLT3 (Homo sapiens, UniProt P36888).
T2 sequence (P36888 27-993): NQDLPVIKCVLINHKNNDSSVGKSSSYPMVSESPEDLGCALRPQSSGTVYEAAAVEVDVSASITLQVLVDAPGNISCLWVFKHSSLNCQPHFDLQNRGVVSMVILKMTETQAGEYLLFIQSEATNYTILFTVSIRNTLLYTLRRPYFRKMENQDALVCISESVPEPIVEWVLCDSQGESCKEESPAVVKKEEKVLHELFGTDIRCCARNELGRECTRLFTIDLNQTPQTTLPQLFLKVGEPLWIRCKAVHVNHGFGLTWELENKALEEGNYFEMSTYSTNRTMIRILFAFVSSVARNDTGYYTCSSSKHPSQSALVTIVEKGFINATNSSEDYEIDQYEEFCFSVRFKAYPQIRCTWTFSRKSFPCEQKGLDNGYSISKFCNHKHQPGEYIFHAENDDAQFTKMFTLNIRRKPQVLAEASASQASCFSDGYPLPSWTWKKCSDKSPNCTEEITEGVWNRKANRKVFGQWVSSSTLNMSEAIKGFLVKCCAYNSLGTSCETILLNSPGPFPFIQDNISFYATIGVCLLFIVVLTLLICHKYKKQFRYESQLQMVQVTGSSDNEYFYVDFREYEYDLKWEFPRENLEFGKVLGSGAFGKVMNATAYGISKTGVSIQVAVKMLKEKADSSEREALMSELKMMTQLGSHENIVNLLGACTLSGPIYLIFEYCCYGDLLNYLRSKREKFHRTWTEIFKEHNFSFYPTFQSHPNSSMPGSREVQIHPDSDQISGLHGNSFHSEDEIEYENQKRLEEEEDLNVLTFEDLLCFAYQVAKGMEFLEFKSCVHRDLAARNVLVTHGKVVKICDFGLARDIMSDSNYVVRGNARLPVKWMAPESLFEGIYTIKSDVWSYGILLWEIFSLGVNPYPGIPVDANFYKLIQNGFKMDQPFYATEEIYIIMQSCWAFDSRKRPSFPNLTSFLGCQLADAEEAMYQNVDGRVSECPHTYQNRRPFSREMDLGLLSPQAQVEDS
Kind of assay: TR-FRET kinase activity assay, FLT3. Format: biochemical. Particulars: ATP at Km, 60 minutes. Summed up: as §1

For the compound `CCc1cc(Nc2ncc3c(OC4CCNCC4)ncc([C@H]4CC[C@H](O)CC4)c3n2)ccc1Cl` [Compound 300], the IC50 (in general, the concentration that inhibits the measured activity by half) was at most 100 nM in assay [1] and 100 to 1000 nM in assay [2]. Further, the “Mer/Flt3 ratio (FLT3 IC50/Mer IC50)” value in assay [1] is “++ (a ratio of between 10 and 100)”.
Take `COC[C@H](C)Nc1ncc2c(OC3CCOCC3)ncc(-c3ccc(O)cc3)c2n1` [Compound 301]: the IC50 was at most 100 nM in assay [1] and 1000 to 10000 nM in assay [2]. In assay [1], the “Mer/Flt3 ratio (FLT3 IC50/Mer IC50)” value was “+++ (a ratio of >100)”.
Regarding `COC[C@H](C)Nc1ncc2c(O[C@H]3CCNCC3(F)F)ncc([C@H]3CC[C@H](O)CC3)c2n1` [Compound 302], in assay [1], the IC50 lay within 100 to 1000 nM; the “Mer/Flt3 ratio (FLT3 IC50/Mer IC50)” value is “++ (a ratio of between 10 and 100)”. In assay [2], this compound gave an IC50 of 1000 to 10000 nM.
Turning to `COC[C@H](C)Nc1ncc2c(C)ncc([C@H]3CC[C@H](O)CC3)c2n1` [Compound 303], in assay [1], the IC50 was at most 100 nM and the “Mer/Flt3 ratio (FLT3 IC50/Mer IC50)” value is “+++ (a ratio of >100)”. The same compound displayed an IC50 in assay [2] of 1000 to 10000 nM.
The matching figures for `C[C@@H](CF)Nc1ncc2c(OC3CCOCC3)ncc([C@H]3CC[C@H](O)CC3)c2n1` [Compound 304]: at most 100 nM, “+++ (a ratio of >100)” and 1000 to 10000 nM.
With `C[C@@H](CC(F)(F)F)Nc1ncc2c(OC3CCOCC3)ncc([C@H]3CC[C@H](O)CC3)c2n1` [Compound 305], in assay [1], the IC50 is at most 100 nM and the “Mer/Flt3 ratio (FLT3 IC50/Mer IC50)” value is recorded as “+++ (a ratio of >100)”. In assay [2], this compound showed an IC50 of 100 to 1000 nM.
Regarding `CC[C@H](C)Nc1ncc2c(OC3CCN(c4ncccn4)CC3)ncc([C@H]3CC[C@H](O)CC3)c2n1` [Compound 306], in assay [1], the IC50 was at most 100 nM and the “Mer/Flt3 ratio (FLT3 IC50/Mer IC50)” value is “+++ (a ratio of >100)”. This compound returned a 50% inhibitory concentration (IC50) in assay [2] of 1000 to 10000 nM.
The matching figures for `COC[C@H](C)Nc1ncc2c(OC3CCOCC3)ncc(-c3cccc(S(=O)(=O)N(C)C)c3)c2n1` [Compound 307, (S)-3-(2-((1-methoxypropan-2-yl)amino)-5-((tetrahydro-2H-pyran-4-yl)oxy)pyrido[4,3-d]pyrimidin-8-yl)-N,N-dimethylbenzenesulfonamide]: at most 100 nM, “+++ (a ratio of >100)” and 1000 to 10000 nM.
The matching figures for `COC[C@H](C)Nc1ncc2c(O[C@@H]3CCNCC3(F)F)ncc([C@H]3CC[C@H](O)CC3)c2n1` [Compound 308]: at most 100 nM, “+++ (a ratio of >100)” and 1000 to 10000 nM.
The matching figures for `COC[C@H](C)Nc1ncc2c(OC3CCOCC3)ncc(-c3ccc(N)cc3)c2n1` [Compound 309]: at most 100 nM, “+++ (a ratio of >100)” and 1000 to 10000 nM.
In the case of `COCCN1C(C)(C)CC(Oc2ncc([C@H]3CC[C@H](O)CC3)c3nc(N[C@@H](C)COC)ncc23)CC1(C)C` [Compound 310], the IC50 is at most 100 nM in assay [1] and 1000 to 10000 nM in assay [2]. The “Mer/Flt3 ratio (FLT3 IC50/Mer IC50)” value in assay [1] is on record as “+++ (a ratio of >100)”.
The matching figures for `C[C@@H](CCF)Nc1ncc2c(OC3CCOCC3)ncc([C@H]3CC[C@H](O)CC3)c2n1` [Compound 311]: at most 100 nM, 1000 to 10000 nM and “+++ (a ratio of >100)”.
For `COCC[C@H](C)Nc1ncc2c(OC3CCOCC3)ncc([C@H]3CC[C@H](O)CC3)c2n1` [Compound 312], in assay [1], the IC50 was at most 100 nM and the “Mer/Flt3 ratio (FLT3 IC50/Mer IC50)” value was “+++ (a ratio of >100)”. In assay [2], this compound yielded an IC50 of 1000 to 10000 nM.
For the compound `CC(C)Nc1ncc2c(OC3CCOCC3)ncc(-c3cccc(S(C)(=O)=O)c3)c2n1` [Compound 313], in assay [1], the 50% inhibitory concentration (IC50) was at most 100 nM and the “Mer/Flt3 ratio (FLT3 IC50/Mer IC50)” value is given as “+++ (a ratio of >100)”. For the same compound, in assay [2], the IC50 is 1000 to 10000 nM.
Regarding `COC[C@H](C)Nc1ncc2c(OC3CCOCC3)ncc(-c3cnn([C@@H]4CCN(C)C4)c3)c2n1` [Compound 314], in assay [1], the IC50 is 100 to 1000 nM; the “Mer/Flt3 ratio (FLT3 IC50/Mer IC50)” value was “++ (a ratio of between 10 and 100)”. The compound further showed an IC50 in assay [2] of 1000 to 10000 nM.
In the case of `COC[C@H](C)Nc1ncc2c(OC3CCOCC3)ncc([C@H]3CC[C@H](NC(C)=O)CC3)c2n1` [Compound 315], the IC50 in assay [1] is at most 100 nM; in assay [2], 1000 to 10000 nM. Also, the “Mer/Flt3 ratio (FLT3 IC50/Mer IC50)” value in assay [1] is listed as “+++ (a ratio of >100)”.
In the same order, the values of `COC[C@H](C)Nc1ncc2c(OC3CCOCC3)ncc([C@H]3CC[C@H](NS(C)(=O)=O)CC3)c2n1` [Compound 316] are at most 100 nM, 1000 to 10000 nM and “+++ (a ratio of >100)”.
In the same order, the values of `CNS(=O)(=O)N[C@H]1CC[C@H](c2cnc(OC3CCOCC3)c3cnc(N[C@@H](C)COC)nc32)CC1` [Compound 317] are at most 100 nM, above 10000 nM and “+++ (a ratio of >100)”.
The matching figures for `CC(C)Nc1ncc2c(OC3CCOCC3)ncc(-c3cccc(S(=O)(=O)C(C)C)c3)c2n1` [Compound 318]: at most 100 nM, 1000 to 10000 nM and “+++ (a ratio of >100)”.
For `COC[C@H](C)Nc1ncc2c(OC3CCOCC3)ncc(-c3ccc(CC#N)cc3)c2n1` [Compound 319], in assay [1], the IC50 is at most 100 nM and the “Mer/Flt3 ratio (FLT3 IC50/Mer IC50)” value is given as “+++ (a ratio of >100)”. This compound had an IC50 in assay [2] of 1000 to 10000 nM.
For `COC[C@H](C)Nc1ncc2c(OC3CCOCC3)ncc(-c3cccc(C#N)c3)c2n1` [Compound 320], the figures for the IC50 in assay [1] and in assay [2] were 100 to 1000 nM and 1000 to 10000 nM, respectively. In addition, the “Mer/Flt3 ratio (FLT3 IC50/Mer IC50)” value in assay [1] is “++ (a ratio of between 10 and 100)”.
As for `CC[C@H](C)Nc1ncc2c(O[C@H]3CC[C@H](N)CC3)ncc([C@H]3CC[C@H](O)CC3)c2n1` [Compound 321], in assay [1], the 50% inhibitory concentration (IC50) was at most 100 nM and the “Mer/Flt3 ratio (FLT3 IC50/Mer IC50)” value is “+++ (a ratio of >100)”. This compound also showed an IC50 in assay [2] of 100 to 1000 nM.
In the same order, the values of `CN(C)S(=O)(=O)c1cccc(-c2cnc(OC3CCOCC3)c3cnc(NC4(C)CC4)nc23)c1` [Compound 322] are at most 100 nM, “+++ (a ratio of >100)” and 100 to 1000 nM.
In the same order, the values of `CN1C[C@H](Nc2ncc3c(OC4CCOCC4)ncc([C@H]4CC[C@H](O)CC4)c3n2)CC1=O` [Compound 323] are at most 100 nM, “+++ (a ratio of >100)” and 1000 to 10000 nM.
Consider `CN1C[C@@H](Nc2ncc3c(OC4CCOCC4)ncc([C@H]4CC[C@H](O)CC4)c3n2)CC1=O` [Compound 324], for which, in assay [1], the IC50 was in the range of 100 to 1000 nM; the “Mer/Flt3 ratio (FLT3 IC50/Mer IC50)” value was “++ (a ratio of between 10 and 100)”. Besides, in assay [2], the IC50 is 1000 to 10000 nM.
